According to patent publication US20250230154A1, “COMPOUND HAVING SHP2 PROTEIN DEGRADING ACTIVITY, AND MEDICAL USES THEREOF” (UBIX THERAPEUTICS, INC., priority 2021, published 2025):

Tests used:
SHP2 protein [1] = target: T1, SHP2 protein (Homo sapiens, UniProt Q06124); assay: Measurement of SHP2 protein degradation in KYSE-520 cells (western blotting); format: cell-based; parameters: endogenous in cells; conditions: 24 hours
T1 sequence (Q06124 1-593): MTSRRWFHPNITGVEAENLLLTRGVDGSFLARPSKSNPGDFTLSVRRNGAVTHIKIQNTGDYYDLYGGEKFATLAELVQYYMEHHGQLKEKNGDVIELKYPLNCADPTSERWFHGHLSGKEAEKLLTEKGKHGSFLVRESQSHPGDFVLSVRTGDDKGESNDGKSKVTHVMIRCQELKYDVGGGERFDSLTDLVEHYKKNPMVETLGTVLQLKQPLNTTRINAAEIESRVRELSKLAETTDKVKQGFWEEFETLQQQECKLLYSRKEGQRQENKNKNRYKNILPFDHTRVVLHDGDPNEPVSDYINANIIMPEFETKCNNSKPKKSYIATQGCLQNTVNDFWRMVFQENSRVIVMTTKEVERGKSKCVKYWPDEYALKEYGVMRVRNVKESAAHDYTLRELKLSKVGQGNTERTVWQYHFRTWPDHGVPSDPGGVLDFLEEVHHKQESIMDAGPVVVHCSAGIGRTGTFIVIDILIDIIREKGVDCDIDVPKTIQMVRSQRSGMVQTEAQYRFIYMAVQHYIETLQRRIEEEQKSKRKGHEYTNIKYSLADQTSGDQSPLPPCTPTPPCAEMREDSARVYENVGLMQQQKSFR
Description: Experimental Example 1: Measurement of SHP2 Protein Degradation in KYSE-520 Cells
KYSE-520 cells were treated with the synthesized Example compound, and the amount of SHP2 protein present in the cells was measured using western blotting detection. The protocol of the experiment conducted using KYSE-520 cells was as follows:
[Culture] KYSE-520 cells resuspended in RPMI1640 MEDIUM (Hyclone, SH30027.01) containing 5% FBS (Hyclone, SV30207.02) and 1% Penicillin-streptomycin (Welgene, LS 202-02) were seeded at a density of 2.5×10^5/well in a 6-well plate in an amount of 2 ml each and incubated for 2 days.
[Compound treatment] […] After 24 hours, cells were harvested. For the negative control group, DMSO diluted 1/10 to the media (3 mL DMSO+27 mL media) was added.
[Cell Lysis and Protein Quantification] Lysis buffer was prepared as follows: […] of RIPA buffer (Biosesang, RC2038-050-00)+0.5 mM PMSF (SIGMA, P7626)+1× Protease/Phosphatase Inhibitor (Cell signaling, 5872S) per well was added and placed on ice for 30 minutes (vortexing at 0 and 30 minutes, respectively). After sonication process (10 seconds pulse, 30 seconds rest, 5 cycles, 70% amplification), centrifugation (15000 g, 15 min, 4° C.) was performed, and then only the supernatant was taken and transferred to a new microtube. The sample was diluted ¼ with RIPA buffer in a 96-well plate, and mixed with A:B=50:1 of the BCA Protein Assay Kit (iNtRON, 21071). […] each of the mixture was left at 37° C. for 30 minutes, and cooled for 10 minutes. Then, absorbance was measured at 562 nm with the SYNERGY H1 microplate reader from BioTek. After making a sample by quantifying the protein with the measured value, boiling was performed at 70° C. for 10 minutes. At this time, the sample buffer used was a mixture of NuPAGE or Bolt 4× sample buffer (Invitrogen) and each 10× sample reducing agent according to the gel to be used, and RIPA buffer was used for protein dilution.
[Western blotting detection method] The same amount of sample was loaded on NuPAGE or Bolt Bis-tris 4-12% gradient gel and run (200 V, 35 minutes). It was transferred to 0.2 mm NC membrane with Trans-blot Turbo (BIO-RAD) (1.3 A constant, 25 V limit, 15 minutes). Blocking was performed at room temperature for 1 hour with Skim milk or Intercept Blocking Buffer (LI-COR, 927-60001):0.1% TBST=1:1. Anti SHPTP2 Mouse (1:500 in 5% Skim milk/TBST, size: 70 kDa, Santacruz sc-7384) was incubated overnight at 4° C., and Anti GAPDH Rabbit (1:2,000 in 5% BSA/0.2% TBST, size: 37 kDa, CST #2118) was incubated at room temperature for 1 hour 30 minutes or 3 hours. It was washed 3 times for 5 minutes each with 0.2% TBST washing buffer. Secondary antibody Anti-Rabbit IgG (1:5,000 in 5% Skim milk/0.2% TBST, CST), and IRDye® 680RD Goat anti-Rabbit IgG Secondary Antibody (1:10,000 in 5% BSA/0.2% TBST, LI-COR 926-68071) were incubated for 45 minutes on a rocker at room temperature. It was washed 5 times for 5 minutes each with 0.2% TBST washing buffer and detected with LI-COR's Odyssey. At this time, SHPTP2 was detected using SuperSignal West Pico PLUS Chemiluminescent Substrate, and house-keeping genes were also detected.
In the results of Table 4 below, Compounds 1-7, 13-19, and 21-26 are results in KYSE-520 cells, and the others are results in MV-4-11 cells.

SHP2 protein [2] = target: T1, SHP2 protein; assay: Measurement of SHP2 protein degradation in MV-4-11 cells (western blotting); format: cell-based; parameters: endogenous in cells; host or cells: MV-4-11; conditions: for SHP2 degradation (%) 10 nM / SHP2 degradation (%) 100 nM / SHP2 degradation (%) 1000 nM: MV-4-11 cells, 24 hours
Summary of the method: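 SHP2 protein levels were assessed by western blotting in MV-4-11 cells after a 24 hour compound treatment. Lysates were sonicated, centrifuged, normalized by BCA assay at 562 nm, run on Bis-tris 4-12% gels, transferred to NC membrane, probed with anti-SHPTP2 (70 kDa) and anti-GAPDH (37 kDa) antibodies, and detected on LI-COR Odyssey.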

SMILES	SHP2 degradation (%) 100 nM (SHP2 protein [1]; 100 nM) [%]	SHP2 degradation (%) 1000 nM (SHP2 protein [1]; 1000 nM) [%]	SHP2 degradation (%) 10 nM (SHP2 protein [2]) [%]	SHP2 degradation (%) 100 nM (SHP2 protein [2]) [%]	SHP2 protein degradation activity (in words) (SHP2 protein [2]; comment on Table 4)	SHP2 degradation (%) 1000 nM (SHP2 protein [2]) [%]
Cc1ncsc1-c1ccc(CNC(=O)[C@@H]2C[C@@H](O)CN2C(=O)[C@@H](NC(=O)C2(F)CC2)C(C)(C)C)c(OCCCCCCN2CC(C(=O)Nc3cccc(Sc4cnc(N5CCC(C)(CN)CC5)cn4)c3Cl)C2)c1 [Example 19, (2S,4R)—N-(2-((6-(3-((3-((5-(4-(aminomethyl)-4-methylpiperidin-1-yl)pyrazin-2-yl)thio)-2-chlorophenyl)carbamoyl)azetidin-1-yl)hexyl)oxy)-4-(4-methylthiazol-5-yl)benzyl)-1-((S)-2-(1-fluorocyclopropane-1-carboxamido)-3,3-dimethylbutanoyl)-4-hydroxypyrrolidine-2-carboxamide]	31.5	78.0	–	–	–	–
Cc1ncsc1-c1ccc(CNC(=O)[C@@H]2C[C@@H](O)CN2C(=O)[C@@H](NC(=O)C2(F)CC2)C(C)(C)C)c(OCCCC2CCN(C(=O)C3(C(=O)Nc4cccc(Sc5cnc(N6CCC(C)(CN)CC6)cn5)c4Cl)CC3)CC2)c1 [Example 48, (2S,4R)—N-(2-(3-(1-(1-((3-((5-(4-(aminomethyl)-4-methylpiperidin-1-yl)pyrazin-2-yl)thio)-2-chlorophenyl)carbamoyl)cyclopropane-1-carbonyl)piperidin-4-yl)propoxy)-4-(4-methylthiazol-5-yl)benzyl)-1-((S)-2-(1-fluorocyclopropane-1-carboxamido)-3,3-dimethylbutanoyl)-4-hydroxypyrrolidine-2-carboxamide]	–	–	18.6	57.3	somewhat decreased	–
Cc1ncsc1-c1ccc(CNC(=O)[C@@H]2C[C@@H](O)CN2C(=O)[C@@H](NC(=O)C2(F)CC2)C(C)(C)C)c(OCCCN2CCN(C(=O)CC(=O)Nc3cccc(Sc4cnc(N5CCC(C)(CN)CC5)cn4)c3Cl)CC2)c1 [Example 60, (2S,4R)—N-(2-(3-(4-(3-((3-((5-(4-(aminomethyl)-4-methylpiperidin-1-yl)pyrazin-2-yl)thio)-2-chlorophenyl)amino)-3-oxopropanoyl)piperazin-1-yl)propoxy)-4-(4-methylthiazol-5-yl)benzyl)-1-((S)-2-(1-fluorocyclopropane-1-carboxamido)-3,3-dimethylbutanoyl)-4-hydroxypyrrolidine-2-carboxamide]	–	–	59	94	–	95.5
Cc1ncsc1-c1ccc(CNC(=O)[C@@H]2C[C@@H](O)CN2C(=O)[C@@H](NC(=O)C2(F)CC2)C(C)(C)C)c(OCC2CCN(C(=O)CC(=O)Nc3cccc(Sc4cnc(N5CCC(C)(N)CC5)cn4)c3Cl)CC2)c1 [Example 29, (2S,4R)—N-(2-((1-(3-((3-((5-(4-amino-4-methylpiperidin-1-yl)pyrazin-2-yl)thio)-2-chlorophenyl)amino)-3-oxopropanoyl)piperidin-4-yl)methoxy)-4-(4-methylthiazol-5-yl)benzyl)-1-((S)-2-(1-fluorocyclopropane-1-carboxamido)-3,3-dimethylbutanoyl)-4-hydroxypyrrolidine-2-carboxamide]	–	–	84	95.5	–	–
Cc1ncsc1-c1ccc(CNC(=O)[C@@H]2C[C@@H](O)CN2C(=O)[C@@H](NC(=O)C2(F)CC2)C(C)(C)C)c(OCCCC2CCN(CCC(=O)Nc3cccc(Sc4cnc(N5CCC(C)(CN)CC5)cn4)c3Cl)CC2)c1 [Example 75, (2S,4R)—N-(2-(3-(1-(3-((3-((5-(4-(aminomethyl)-4-methylpiperidin-1-yl)pyrazin-2-yl)thio)-2-chlorophenyl)amino)-3-oxopropyl)piperidin-4-yl)propoxy)-4-(4-methylthiazol-5-yl)benzyl)-1-((S)-2-(1-fluorocyclopropane-1-carboxamido)-3,3-dimethylbutanoyl)-4-hydroxypyrrolidine-2-carboxamide]	–	–	19.5	75.5	–	93.5

Next, values leading:

SHP2 degradation (%) 100 nM (SHP2 protein [1]; 100 nM) [%]	SHP2 degradation (%) 1000 nM (SHP2 protein [1]; 1000 nM) [%]	SHP2 degradation (%) 10 nM (SHP2 protein [2]) [%]	SHP2 degradation (%) 100 nM (SHP2 protein [2]) [%]	SHP2 protein degradation activity (in words) (SHP2 protein [2]; comment on Table 4)	SHP2 degradation (%) 1000 nM (SHP2 protein [2]) [%]	SMILES
–	–	5.1	85.6	–	–	Cc1ncsc1-c1ccc(CNC(=O)[C@@H]2C[C@@H](O)CN2C(=O)[C@@H](NC(=O)C2(F)CC2)C(C)(C)C)c(OCCN2CCN(CC(=O)Nc3cccc(Sc4cnc(N5CCC(C)(CN)CC5)cn4)c3Cl)CC2)c1 [Example 72, (2S,4R)—N-(2-(2-(4-(2-((3-((5-(4-(aminomethyl)-4-methylpiperidin-1-yl)pyrazin-2-yl)thio)-2-chlorophenyl)amino)-2-oxoethyl)piperazin-1-yl)ethoxy)-4-(4-methylthiazol-5-yl)benzyl)-1-((S)-2-(1-fluorocyclopropane-1-carboxamido)-3,3-dimethylbutanoyl)-4-hydroxypyrrolidine-2-carboxamide]
–	–	−1.0	29.0	–	87.5	Cc1ncsc1-c1ccc(CNC(=O)[C@@H]2C[C@@H](O)CN2C(=O)[C@@H](NC(=O)C2(F)CC2)C(C)(C)C)c(OCCCC2CCN(CC(=O)Nc3cccc(Sc4cnc(N5CCC(C)(CN)CC5)cn4)c3Cl)CC2)c1 [Example 71, (2S,4R)—N-(2-(3-(1-(2-((3-((5-(4-(aminomethyl)-4-methylpiperidin-1-yl)pyrazin-2-yl)thio)-2-chlorophenyl)amino)-2-oxoethyl)piperidin-4-yl)propoxy)-4-(4-methylthiazol-5-yl)benzyl)-1-((S)-2-(1-fluorocyclopropane-1-carboxamido)-3,3-dimethylbutanoyl)-4-hydroxypyrrolidine-2-carboxamide]
–	–	4.7	74.1	–	–	Cc1ncsc1-c1ccc(CNC(=O)[C@@H]2C[C@@H](O)CN2C(=O)[C@@H](NC(=O)C2(F)CC2)C(C)(C)C)c(OC2CC3(CCN(C(=O)CC(=O)N(C)c4cccc(Sc5cnc(N6CCC(C)(CN)CC6)cn5)c4Cl)CC3)C2)c1 [Example 51, (2S,4R)—N-(2-((7-(3-((3-((5-(4-(aminomethyl)-4-methylpiperidin-1-yl)pyrazin-2-yl)thio)-2-chlorophenyl)(methyl)amino)-3-oxopropanoyl)-7-azaspiro[3.5]nonan-2-yl)oxy)-4-(4-methylthiazol-5-yl)benzyl)-1-((S)-2-(1-fluorocyclopropane-1-carboxamido)-3,3-dimethylbutanoyl)-4-hydroxypyrrolidine-2-carboxamide]
